Experimental data reported in US6809115B2, “METHODS AND COMPOSITIONS FOR THE TREATMENT OF DIABETES, THE REDUCTION OF BODY FAT, IMPROVEMENT OF INSULIN SENSITIVITY, REDUCTION OF HYPERGLYCEMIA, AND REDUCTION OF HYPERCHOLESTEROLEMIA WITH CHROMIUM COMPLEXES, CONJUGATED FATTY ACIDS, AND/OR CONJUGATED FATTY ALCOHOLS” (Nutrition 21, Inc., priority 2000, dated 2004).

How the values were obtained:
[1] = cited from earlier work
[2] = tested on: human skeletal muscle culture; assay: glucose uptake in human skeletal muscle culture; assay type: cell-based; details: FIGS. 1 and 2, axis in pico Moles per milligram
Text: FIG. 2 graphs the effect of CP+CLA on glucose uptake in human skeletal muscle culture.
FIG. 3 illustrates the effect of CP+CLA on glucose uptake in human skeletal muscle culture.
Embodiments of the present invention include compositions which contain a conjugated fatty acid or conjugated fatty alcohol in combination with at least one chromium complex. Additionally, uses of the compositions disclosed herein to treat diabetes and/or obesity are provided. The co-administration of a conjugated fatty acid or conjugated fatty alcohol and at least one chromium complex provides a number of advantages over conventional pharmaceutical regimes for the treatment of diabetes and promotion of weight loss. One advantage of the compositions described herein over conventional treatment regimes for diabetes (such as injection of insulin) and weight loss is that compositions comprising a conjugated compound such as a conjugated fatty acid or conjugated fatty alcohol and at least one chromium complex have no known side effects while still providing efficacy in glucose uptake and weight loss. […] Those bars on FIGS. 1, 2, and 3 representing Chromium Picolinate (CP) and Conjugated Linoleic Acid (CLA) are measured in nanograms per milliliter.

[3] = growing animals; cited from earlier work
[4] = patients treated for obesity; cited from earlier work
[5] = in vivo; cited from earlier work
[6] = rats, oral CrCl3, co-administered NSAID; cited from earlier work

Compound: conjugated linoleic acid [CLA]
- effect of CLA alone in obese subjects ([1]; added to standard diet and exercise): no effect
- fat mass ([1]; subgroup who did not follow diet and exercise well and gained lean body mass, placebo subjects had increase): reduction in fat mass
- glucose uptake ([2]; basal (without insulin)): no effect
- glucose uptake ([2]; stimulated (with insulin)): no effect
- reduction of fat gain [3]: 25%-70%

Compound: CCCCCCCCCCC[C@@H](C[C@@H]1OC(=O)[C@H]1CCCCCC)OC(=O)[C@H](CC(C)C)NC=O [orlistat]
- side effects [4]: may have unpleasant gastrointestinal side effects

Compound: chromium picolinate
- weight loss and body composition [5]: modest weight loss and changes in body composition

Compound: CC(=O)Oc1ccccc1C(=O)O [aspirin, acetylsalicylic acid]
- chromium absorption [6]: facilitated

Compound: CC(C)CC(N(C)C)C1(c2ccc(Cl)cc2)CCC1 (stereo not drawn) [Sibutramine]
- side effects [4]: increases blood pressure in a subset of patients
